# Assay results reported in US20060177430A1, “Treatment of ocular disorders with ophthalmic formulations containing methylsulfonylmethane as a transport enhancer” (Chakshu Research Inc, priority 2002, published 2006).
# Read-outs that look alike come from different tables or passages of the source.
# Experiments:
# [1] = 30-minute time point; 8 μl eye drop on rat cornea; MSM versus PBS
# [2] = Intestinal membrane permeation, MSM as enhancer, dexamethasone as active (Example 15); format: in vitro ADME
# From the text: The same study design and experimental setup was used as described in the above experiments.
# [3] = Dexamethasone solubility experiment with increasing MSM concentration (Example 16); format: physicochemical
# [4] = Intestinal membrane permeation, MSM as enhancer, methylene blue as active (Example 8); format: in vitro ADME, porcine
# From the text: In this experiment we selected methylene blue as the species for which permeation enhancement was desired. As tissue model for this experiment we selected porcine intestinal membrane. A small glass vial was filled with test solution and capped with the test membrane (tissue layer of defined thickness). The membrane tissue was hold in place with a rubber O-ring and a screw cap of defined surface area opening. This test unit was immersed into a large glass vial filled with receptor medium. From this large glass vial, small sample receptor medium volumes were periodically removed for analysis.
# [5] = Methylene blue permeation through MSM pre-treated porcine intestinal membrane (Example 17); format: in vitro ADME
# Method: This experiment was designed to investigate if there is a long-lasting enhancement effect of MSM, i.e., if there is a long-lasting disruption of membrane permeability after the formula was removed or washed-out after application.
# Methylene blue was the active. The tissue model was porcine intestinal membrane, which was pre-treated. In this experiment all membranes were soaked for 24 hours in a MSM containing pre-treatment solution. […] After the 24-hour soaking period, “Test A” membrane was thoroughly washed, while “Test B” membrane was only briefly rinsed. Those membrane specimens were then mounted as described earlier on methylene blue containing glass vials, which were then immersed as described earlier into a larger glass vial containing receptor medium containing. Only the MSM-enhanced donor solution contained, besides methylene blue, also MSM for enhancement purposes. • Control: No MSM in 24-hour pre-treatment, no MSM enhancer in donor • Test A: 24-hour MSM pretreatment w/thorough washing, no MSM enhancer • Test B: 24-hour MSM pretreatment w/brief rinsing, no MSM enhancer • MSM-enhanced: No MSM in 24-hour pre-treatment, w/MSM enhancer
# [6] = Bovine cornea penetration, MSM as enhancer, methylene blue as active (Example 9); format: in vitro ADME
# From the text: In this example the same principal study design and protocol was used as described in Example 8. In this experiment, we selected methylene blue again as the species for which permeation enhancement was desired; however, as tissue model we selected bovine cornea. The bovine cornea was dissected from bovine eyes procured from slaughterhouses. We selected bovine cornea tissue as the test membrane because it is known to be a very difficult membrane to penetrate. Bovine cornea is about 4-6 times thicker than the human corneal membrane.
compound,measurement,setting,value
"O=C([O-])CN(CC(=O)[O-])[14CH2][14CH2]N(CC(=O)[O-])CC(=O)[O-].[Na+].[Na+].[Na+].[Na+] [^14C-EDTA, Ethylenediamine tetraacetic acid-1,2-^14C tetrasodium]",increase in amount in the aqueous humor in the presence of MSM,[1],approximately 5 fold
C[C@@H]1C[C@H]2[C@@H]3CCC4=CC(=O)C=C[C@]4(C)[C@@]3(F)[C@@H](O)C[C@]2(C)[C@@]1(O)C(=O)CO [dexamethasone],increase on the diffusion rate,[2]; 27 mg MSM/ml,25%
same,permeation increase over control,[2]; 200 mg MSM/mL,approximately 50%
same,solubility,[3]; MSM concentration 250 mg/mL,45 mg/100 mL
same,solubility change,[3]; MSM concentration of 30 mg/mL,not significantly increased
same,solubility,"[3]; MSM solution, aqueous with cosolvent or surfactant or cyclodextrin, MSM 30 mg/ml, read-out: Solubility of Dexamethasone",160 µg/mL
same,solubility,"[3]; MSM solution, aqueous with cosolvent or surfactant or cyclodextrin, MSM 50 mg/ml, read-out: Solubility of Dexamethasone",175 µg/mL
same,solubility,"[3]; MSM solution, aqueous with cosolvent or surfactant or cyclodextrin, MSM 100 mg/ml, read-out: Solubility of Dexamethasone",190 µg/mL
same,solubility,"[3]; MSM solution, aqueous with cosolvent or surfactant or cyclodextrin, MSM 150 mg/ml, read-out: Solubility of Dexamethasone",270 µg/mL
same,solubility,"[3]; MSM solution, aqueous with cosolvent or surfactant or cyclodextrin, MSM 200 mg/ml, read-out: Solubility of Dexamethasone",340 µg/mL
same,solubility,"[3]; MSM solution, aqueous with cosolvent or surfactant or cyclodextrin, MSM 250 mg/ml, read-out: Solubility of Dexamethasone",450 µg/mL
same,water solubility,"[3]; room temperature, no MSM",10 mg/100 mL
CN(C)c1ccc2nc3ccc(=[N+](C)C)cc-3sc2c1 [methylene blue],enhancement factor of cumulative permeation when MSM is present in the donor solution,[4]; MSM 27 mg/mL versus control,~2
same,Absorbance at 668 nm of receptor medium (methylene blue permeation),"[4]; Time 0.55 Hr, Control: no MSM",0.021
same,Absorbance at 668 nm of receptor medium (methylene blue permeation),"[4]; Time 0.55 Hr, MSM 27 mg/mL in donor",0.023
same,Absorbance at 668 nm of receptor medium (methylene blue permeation),"[4]; Time 1.9 Hr, Control: no MSM",0.061
same,Absorbance at 668 nm of receptor medium (methylene blue permeation),"[4]; Time 1.9 Hr, MSM 27 mg/mL in donor",0.176
same,Absorbance at 668 nm of receptor medium (methylene blue permeation),"[4]; Time 2.9 Hr, Control: no MSM",0.162
same,Absorbance at 668 nm of receptor medium (methylene blue permeation),"[4]; Time 2.9 Hr, MSM 27 mg/mL in donor",0.323
same,Absorbance at 668 nm of receptor medium (methylene blue permeation),"[4]; Time 4 Hr, Control: no MSM",0.234
same,Absorbance at 668 nm of receptor medium (methylene blue permeation),"[4]; Time 4 Hr, MSM 27 mg/mL in donor",0.433
same,Absorbance at 668 nm of receptor medium (methylene blue permeation),"[4]; Time 5.7 Hr, Control: no MSM",0.283
same,Absorbance at 668 nm of receptor medium (methylene blue permeation),"[4]; Time 5.7 Hr, MSM 27 mg/mL in donor",0.563
same,Absorbance at 668 nm of receptor medium (methylene blue permeation),"[4]; Time 6.9 Hr, Control: no MSM",0.408
same,Absorbance at 668 nm of receptor medium (methylene blue permeation),"[4]; Time 6.9 Hr, MSM 27 mg/mL in donor",0.738
same,permeation rate of enhanced solution relative to control,[5]; MSM 50 mg/mL in donor,approximately 2 times
same,permeation through MSM-pretreated membrane versus control,"[5]; MSM pretreatment, brief rinsing, no MSM in donor",slightly higher
same,remaining enhancement after thorough washing of MSM-pretreated membrane,"[5]; MSM pretreatment, thorough washing, no MSM in donor",no detectable remaining enhancement effect
same,Absorbance @ 668 nm of receptor medium (methylene blue permeation),"[5]; Time 0.27, Control: no MSM pre-treatment, no MSM enhancer",0.01
same,Absorbance @ 668 nm of receptor medium (methylene blue permeation),"[5]; Time 0.27, Test A: MSM pretreatment w/thorough washing, no MSM enhancer",0.01
same,Absorbance @ 668 nm of receptor medium (methylene blue permeation),"[5]; Time 0.27, Test B: MSM pretreatment w/brief rinsing, no MSM enhancer",0.019
same,Absorbance @ 668 nm of receptor medium (methylene blue permeation),"[5]; Time 0.50, Control: no MSM pre-treatment, no MSM enhancer",0.025
same,Absorbance @ 668 nm of receptor medium (methylene blue permeation),"[5]; Time 0.50, MSM-enhanced: no pre-treatment, MSM 50 mg/mL in donor",0.06
same,Absorbance @ 668 nm of receptor medium (methylene blue permeation),"[5]; Time 0.50, Test A: MSM pretreatment w/thorough washing, no MSM enhancer",0.031
same,Absorbance @ 668 nm of receptor medium (methylene blue permeation),"[5]; Time 0.50, Test B: MSM pretreatment w/brief rinsing, no MSM enhancer",0.041
same,Absorbance @ 668 nm of receptor medium (methylene blue permeation),"[5]; Time 0.75, Control: no MSM pre-treatment, no MSM enhancer",0.037
same,Absorbance @ 668 nm of receptor medium (methylene blue permeation),"[5]; Time 0.75, Test A: MSM pretreatment w/thorough washing, no MSM enhancer",0.043
same,Absorbance @ 668 nm of receptor medium (methylene blue permeation),"[5]; Time 0.75, Test B: MSM pretreatment w/brief rinsing, no MSM enhancer",0.055
same,Absorbance @ 668 nm of receptor medium (methylene blue permeation),"[5]; Time 1.00, Control: no MSM pre-treatment, no MSM enhancer",0.052
same,Absorbance @ 668 nm of receptor medium (methylene blue permeation),"[5]; Time 1.00, MSM-enhanced: no pre-treatment, MSM 50 mg/mL in donor",0.13
same,Absorbance @ 668 nm of receptor medium (methylene blue permeation),"[5]; Time 1.00, Test A: MSM pretreatment w/thorough washing, no MSM enhancer",0.064
same,Absorbance @ 668 nm of receptor medium (methylene blue permeation),"[5]; Time 1.00, Test B: MSM pretreatment w/brief rinsing, no MSM enhancer",0.079
same,Absorbance @ 668 nm of receptor medium (methylene blue permeation),"[5]; Time 1.50, Control: no MSM pre-treatment, no MSM enhancer",0.078
same,Absorbance @ 668 nm of receptor medium (methylene blue permeation),"[5]; Time 1.50, MSM-enhanced: no pre-treatment, MSM 50 mg/mL in donor",0.204
same,Absorbance @ 668 nm of receptor medium (methylene blue permeation),"[5]; Time 1.50, Test A: MSM pretreatment w/thorough washing, no MSM enhancer",0.089
same,Absorbance @ 668 nm of receptor medium (methylene blue permeation),"[5]; Time 1.50, Test B: MSM pretreatment w/brief rinsing, no MSM enhancer",0.118
same,Absorbance @ 668 nm of receptor medium (methylene blue permeation),"[5]; Time 2.00, Control: no MSM pre-treatment, no MSM enhancer",0.114
same,Absorbance @ 668 nm of receptor medium (methylene blue permeation),"[5]; Time 2.00, MSM-enhanced: no pre-treatment, MSM 50 mg/mL in donor",0.281
same,Absorbance @ 668 nm of receptor medium (methylene blue permeation),"[5]; Time 2.00, Test A: MSM pretreatment w/thorough washing, no MSM enhancer",0.125
same,Absorbance @ 668 nm of receptor medium (methylene blue permeation),"[5]; Time 2.00, Test B: MSM pretreatment w/brief rinsing, no MSM enhancer",0.16
same,Absorbance @ 668 nm of receptor medium (methylene blue permeation),"[5]; Time 24.00, Control: no MSM pre-treatment, no MSM enhancer",0.92
same,Absorbance @ 668 nm of receptor medium (methylene blue permeation),"[5]; Time 24.00, MSM-enhanced: no pre-treatment, MSM 50 mg/mL in donor",1.393
same,Absorbance @ 668 nm of receptor medium (methylene blue permeation),"[5]; Time 24.00, Test A: MSM pretreatment w/thorough washing, no MSM enhancer",0.939
same,Absorbance @ 668 nm of receptor medium (methylene blue permeation),"[5]; Time 24.00, Test B: MSM pretreatment w/brief rinsing, no MSM enhancer",1.112
same,enhancement factor of cumulative permeation when MSM is present in the donor solution,[6]; MSM 27 mg/mL versus control,> 3
same,lag time,[6]; MSM present in the donor solution,less than 12 hours
same,Absorbance @ 668 nm of receptor medium (methylene blue permeation),"[6]; Time 43.5 Hr, Control: no MSM",0.024
same,Absorbance @ 668 nm of receptor medium (methylene blue permeation),"[6]; Time 43.5 Hr, MSM 27 mg/mL in donor",0.093
same,Absorbance @ 668 nm of receptor medium (methylene blue permeation),"[6]; Time 52.75 Hr, Control: no MSM",0.03
same,Absorbance @ 668 nm of receptor medium (methylene blue permeation),"[6]; Time 52.75 Hr, MSM 27 mg/mL in donor",0.13
same,Absorbance @ 668 nm of receptor medium (methylene blue permeation),"[6]; Time 65 Hr, Control: no MSM",0.035
same,Absorbance @ 668 nm of receptor medium (methylene blue permeation),"[6]; Time 65 Hr, MSM 27 mg/mL in donor",0.163
same,Absorbance @ 668 nm of receptor medium (methylene blue permeation),"[6]; Time 75.5 Hr, Control: no MSM",0.042
same,Absorbance @ 668 nm of receptor medium (methylene blue permeation),"[6]; Time 75.5 Hr, MSM 27 mg/mL in donor",0.195
same,Absorbance @ 668 nm of receptor medium (methylene blue permeation),"[6]; Time 89 Hr, Control: no MSM",0.057
same,Absorbance @ 668 nm of receptor medium (methylene blue permeation),"[6]; Time 89 Hr, MSM 27 mg/mL in donor",0.213
same,Absorbance @ 668 nm of receptor medium (methylene blue permeation),"[6]; Time 97.5 Hr, Control: no MSM",0.076
same,Absorbance @ 668 nm of receptor medium (methylene blue permeation),"[6]; Time 97.5 Hr, MSM 27 mg/mL in donor",0.265
same,lag time,[6]; without MSM,about 24 hours
